These results are taken from patent US8653114B2, “O-cyclopropylcyclohexyl-carboxanilides and their use as fungicides” (priority 2010, dated 2014).

Like-named read-outs stand apart in the source and are kept apart here.

A short description of data set [1]: log P by HPLC on reversed phase columns (EEC directive 79/831 Annex V.A8). In kind it is physicochemical. The following applies: for chromatographic logP: reversed phase HPLC columns. The protocol:
Measurement of log P values was performed according EEC directive 79/831 Annex V.A8 by HPLC (High Performance Liquid Chromatography) on reversed phase columns with the following methods:
^[b] measurement of LC-MS was done at pH 2.7 with 0.1% formic acid in water and with acetonitrile (contains 0.1% formic acid) as eluent with a linear gradient from 10% acetonitrle to 95% acetonitrile.

The next data set deals with Sphaerotheca fuliginea. The data set can be described thus: Sphaerotheca test (cucumber) / preventive. Format: in vivo. The following applies: 500 ppm of active ingredient, evaluated 7 days after inoculation. The protocol:
Sphaerotheca Test (Cucumber)/Preventive [table] To produce a suitable preparation of active compound, 1 part by weight of active compound is mixed with the stated amounts of solvent and emulsifier, and the concentrate is diluted with water to the desired concentration. To test for preventive activity, young plants are sprayed with the preparation of active compound at the stated rate of application. One day after this treatment, the plants are inoculated with an aqueous spore suspension of Sphaerotheca fuliginea. Then the plants are placed in a greenhouse at approximately 23° C. and a relative atmospheric humidity of approximately 70%.

The subject of a further data set is Alternaria solani. Description: Alternaria test (tomato) / preventive. Format: in vivo. The following applies: 500 ppm of active ingredient, evaluated 7 days after inoculation. The protocol: Alternaria Test (Tomato)/Preventive [table] To produce a suitable preparation of active compound, 1 part by weight of active compound is mixed with the stated amounts of solvent and emulsifier, and the concentrate is diluted with water to the desired concentration. To test for preventive activity, young plants are sprayed with the preparation of active compound at the stated rate of application. One day after this treatment, the plants are inoculated with an aqueous spore suspension of Alternaria solani.

The subject of another data set is Pyrenophora teres. Description: Pyrenophora test (barley) / preventive. Format: in vivo. The following applies: 500 ppm of active ingredient, evaluated 7-9 days after inoculation. The protocol: Pyrenophora Test (Barley)/Preventive [table] To produce a suitable preparation of active compound, 1 part by weight of active compound is mixed with the stated amounts of solvent and emulsifier, and the concentrate is diluted with water to the desired concentration. To test for preventive activity, young plants are sprayed with the preparation of active compound at the stated rate of application. One day after this treatment, the plants are inoculated with an aqueous spore suspension of Pyrenophora teres.

In another data set the test system is Podosphaera leucotricha. Description: Podosphaera test (apples) / preventive. The following applies: 100 ppm of active ingredient, evaluated 10 days after inoculation. Format: in vivo. The protocol: Podosphaera Test (Apples)/Preventive [table] To produce a suitable preparation of active compound, 1 part by weight of active compound is mixed with the stated amounts of solvent and emulsifier, and the concentrate is diluted with water to the desired concentration. To test for preventive activity, young plants are sprayed with the preparation of active compound at the stated rate of application. After the spray coating has dried on, the plants are inoculated with an aqueous spore suspension of the causal agent of apple mildew (Podosphaera leucotricha). The plants are then placed in a greenhouse at approximately 23° C. and a relative atmospheric humidity of approximately 70%.

In the next data set the test system is Venturia inaequalis. The data set can be described thus: Venturia test (apples) / preventive. Format: in vivo. The following applies: 100 ppm of active ingredient, evaluated 10 days after inoculation. The procedure: Venturia Test (Apples)/Preventive [table] To produce a suitable preparation of active compound, 1 part by weight of active compound is mixed with the stated amounts of solvent and emulsifier, and the concentrate is diluted with water to the desired concentration. To test for preventive activity, young plants are sprayed with the preparation of active compound at the stated rate of application.

For data set [2], the system named is Blumeria graminis f. sp. hordei. The data set can be described thus: Blumeria test (barley) / preventive. Format: in vivo. The following applies: 500 ppm of active ingredient, evaluated 7 days after inoculation. The procedure:
Blumeria Test (Barley)/Preventive [table] To produce a suitable preparation of active compound, 1 part by weight of active compound or active compound combination is mixed with the stated amounts of solvent and emulsifier, and the concentrate is diluted with water to the desired concentration. To test for preventive activity, young plants are sprayed with the preparation of active compound or active compound combination at the stated rate of application. After the spray coating has been dried, the plants are dusted with spores of Blumeria graminis f. sp. hordei.

A further data set deals with Septoria tritici. The data set can be described thus: Septoria tritici-test (wheat) / preventive. Format: in vivo. The following applies: 500 ppm of active ingredient, evaluated 21 days after inoculation. The protocol:
Septoria tritici-Test (Wheat)/Preventive [table] To produce a suitable preparation of active compound, 1 part by weight of active compound or active compound combination is mixed with the stated amounts of solvent and emulsifier, and the concentrate is diluted with water to the desired concentration. To test for preventive activity, young plants are sprayed with the preparation of active compound or active compound combination at the stated rate of application. After the spray coating has been dried, the plants are sprayed with a spore suspension of Septoria tritici.

The test system of another data set is Puccinia triticina. The data set can be described thus: Puccinia triticina-test (wheat) / preventive. The following applies: 500 ppm of active ingredient, evaluated 8 days after inoculation. Format: in vivo. The procedure: Puccinia triticina-Test (Wheat)/Preventive [table] To produce a suitable preparation of active compound, 1 part by weight of active compound or active compound combination is mixed with the stated amounts of solvent and emulsifier, and the concentrate is diluted with water to the desired concentration. To test for preventive activity, young plants are sprayed with the preparation of active compound or active compound combination at the stated rate of application. After the spray coating has been dried, the plants are sprayed with a spore suspension of Puccinia triticina.

The subject of data set [3] is Fusarium nivale (var. majus). Description: Fusarium nivale (var. majus)-test (wheat) / preventive. In kind it is in vivo. The following applies: 500 ppm of active ingredient, evaluated 5 days after inoculation. The procedure: Fusarium nivale (var. majus)-Test (Wheat)/Preventive [table] To produce a suitable preparation of active compound, 1 part by weight of active compound or active compound combination is mixed with the stated amounts of solvent and emulsifier, and the concentrate is diluted with water to the desired concentration. To test for preventive activity, young plants are sprayed with the preparation of active compound or active compound combination at the stated rate of application. After the spray coating has been dried, the plants are slightly injured by using a sandblast and afterwards they are sprayed with a conidia suspension of Fusarium nivale (var. majus).

`Cn1nc(C(F)F)c(C(=O)NC2CCCCC2C2CC2C2CC2)c1F` (single isomer, unassigned) [Example 1, N-{2-[1,1′-bi(cyclopropyl)-2-yl]cyclohexyl}-3-(difluoromethyl)-5-fluoro-1-methyl-1H-pyrazole-4-carboxamide]: the chromatographic logP in data set [1] (pH 2.7, HPLC/LC-MS at pH 2.7, 0.1% formic acid in water / acetonitrile gradient, read-out: Log P[b]) amounted to 4.02; in [1] (pH 2.7, acid, product isolated with a purity of 87% LC-MS, read-out: log P (acid)), 4.02. The Eff. % (in the data set with Sphaerotheca fuliginea; in the data set with Alternaria solani; in the data set with Pyrenophora teres; in the data set on Podosphaera leucotricha; in the data set with Venturia inaequalis; in data set [2]) was 100% in each case. The Eff. % in the data set on Septoria tritici is on record as 90%; in the data set on Puccinia triticina, 100%; in [3], 100%.

Regarding `Cn1nc(C(F)F)c(C(=O)NC2CCCCC2C2CC2C2CC2)c1F` (single isomer, unassigned) [Example 2, N-{2-[1,1′-bi(cyclopropyl)-2-yl]cyclohexyl}-3-(difluoromethyl)-5-fluoro-1-methyl-1H-pyrazole-4-carboxamide], in data set [1] (HPLC/LC-MS at pH 2.7, 0.1% formic acid in water / acetonitrile gradient), the “Log P[b]” value was 3.84. In addition, the Eff. % (with Sphaerotheca fuliginea; in the data set with Alternaria solani; in the data set on Pyrenophora teres; with Podosphaera leucotricha; in the data set with Venturia inaequalis; in data set [2]) was 100% throughout. Besides, the Eff. % in the data set with Septoria tritici was 90%; in the data set with Puccinia triticina it was 100%; in data set [3], 100%.
